Laboratory results as given in PubChem BioAssay AID1259407 (Chemical Carcinogenesis Research Information System (CCRIS), 2018).
Activity calls are given as the source filed them. The rule behind the calls is not given here.

Test system: CCRIS mutagenicity, Ames/micronucleus/aberration tests
Test: CCRIS mutagenicity studies
[1] = Test System: AMES SALMONELLA TYPHIMURIUM, Strain/Indicator: TA98, Metabolic Activation: HAMSTER, LIVER, S-9, AROCLOR 1254, Method: PREINCUBATION
[2] = Test System: AMES SALMONELLA TYPHIMURIUM, Strain/Indicator: TA98, Metabolic Activation: NONE, Method: PREINCUBATION
[3] = Test System: AMES SALMONELLA TYPHIMURIUM, Strain/Indicator: TA98, Metabolic Activation: RAT, LIVER, S-9, AROCLOR 1254, Method: PREINCUBATION
[4] = Test System: AMES SALMONELLA TYPHIMURIUM, Strain/Indicator: TA100, Metabolic Activation: HAMSTER, LIVER, S-9, AROCLOR 1254, Method: PREINCUBATION
[5] = Test System: AMES SALMONELLA TYPHIMURIUM, Strain/Indicator: TA100, Metabolic Activation: NONE, Method: PREINCUBATION
[6] = Test System: AMES SALMONELLA TYPHIMURIUM, Strain/Indicator: TA100, Metabolic Activation: RAT, LIVER, S-9, AROCLOR 1254, Method: PREINCUBATION
[7] = Test System: AMES SALMONELLA TYPHIMURIUM, Strain/Indicator: TA1535, Metabolic Activation: HAMSTER, LIVER, S-9, AROCLOR 1254, Method: PREINCUBATION
[8] = Test System: AMES SALMONELLA TYPHIMURIUM, Strain/Indicator: TA1535, Metabolic Activation: NONE, Method: PREINCUBATION
[9] = Test System: AMES SALMONELLA TYPHIMURIUM, Strain/Indicator: TA1535, Metabolic Activation: RAT, LIVER, S-9, AROCLOR 1254, Method: PREINCUBATION
[10] = Test System: AMES SALMONELLA TYPHIMURIUM, Strain/Indicator: TA1537, Metabolic Activation: HAMSTER, LIVER, S-9, AROCLOR 1254, Method: PREINCUBATION
[11] = Test System: AMES SALMONELLA TYPHIMURIUM, Strain/Indicator: TA1537, Metabolic Activation: NONE, Method: PREINCUBATION
[12] = Test System: AMES SALMONELLA TYPHIMURIUM, Strain/Indicator: TA1537, Metabolic Activation: RAT, LIVER, S-9, AROCLOR 1254, Method: PREINCUBATION

SMILES: O=C(O)C1C(C(=O)O)C2(Cl)C(Cl)=C(Cl)C1(Cl)C2(Cl)Cl (stereo not given)
- mutagenic call (End Point: IN VITRO CHROMOSOMAL ABERRATIONS, Test System: CHINESE HAMSTER LUNG FIBROBLAST CELLS (CHL/IU), Metabolic Activation: RAT, LIVER, S-9, PHENOBARBITAL AND 5,6-BENZOFLAVONE): active; positive (structural changes)
- mutagenic call [1]: inactive; negative
- mutagenic call [2]: inactive; negative
- mutagenic call [3]: inactive; negative
- mutagenic call [4]: inactive; negative
- mutagenic call [5]: inactive; negative
- mutagenic call [6]: inactive; negative
- mutagenic call [7]: inactive; negative
- mutagenic call [8]: inactive; negative
- mutagenic call [9]: inactive; negative
- mutagenic call [10]: inactive; negative
- mutagenic call [11]: inactive; negative
- mutagenic call [12]: inactive; negative
- mutagenic call (Test System: MOUSE LYMPHOMA, Strain/Indicator: L5178Y (TK+/TK-), Metabolic Activation: NONE, Method: MICROWELL): active; positive
- mutagenic call (Test System: MOUSE LYMPHOMA, Strain/Indicator: L5178Y (TK+/TK-), Metabolic Activation: NONE, Method: SUSPENSION/PLATE): active; positive
- mutagenic call (Test System: MOUSE LYMPHOMA, Strain/Indicator: L5178Y (TK+/TK-), Metabolic Activation: S-9, Method: MICROWELL): active; positive

SMILES: Cc1ccc(Cl)cc1[N+](=O)[O-]
- mutagenic call [2]: inactive; negative
- mutagenic call (Test System: AMES SALMONELLA TYPHIMURIUM, Strain/Indicator: TA98, Metabolic Activation: RAT, LIVER, S-9, KANECHLOR 500, Method: PREINCUBATION): inactive; negative
- mutagenic call [5]: inactive; negative
- mutagenic call (Test System: AMES SALMONELLA TYPHIMURIUM, Strain/Indicator: TA100, Metabolic Activation: RAT, LIVER, S-9, KANECHLOR 500, Method: PREINCUBATION): inactive; negative

SMILES: CC1(C)Cc2ncccc2-c2nc(N)sc21
- mutagenic call (Test System: AMES SALMONELLA TYPHIMURIUM, Strain/Indicator: TA1538, Metabolic Activation: RAT, LIVER, S-9, AROCLOR 1254, Method: STANDARD PLATE): active; positive

SMILES: O=C(Cl)c1ccc(Cl)cc1
- mutagenic call [2]: inactive; negative
- mutagenic call (Test System: AMES SALMONELLA TYPHIMURIUM, Strain/Indicator: TA98, Metabolic Activation: RAT LIVER S-9, PHENOBARBITAL AND BETA-NAPHTHOFLAVONE, Method: PREINCUBATION): inactive; negative
- mutagenic call [5]: inactive; negative
- mutagenic call (Test System: AMES SALMONELLA TYPHIMURIUM, Strain/Indicator: TA100, Metabolic Activation: RAT LIVER S-9, PHENOBARBITAL AND BETA-NAPHTHOFLAVONE, Method: PREINCUBATION): inactive; negative
- mutagenic call (Test System: AMES SALMONELLA TYPHIMURIUM, Strain/Indicator: TA102, Metabolic Activation: NONE, Method: PREINCUBATION): inactive; negative
- mutagenic call (Test System: AMES SALMONELLA TYPHIMURIUM, Strain/Indicator: TA102, Metabolic Activation: RAT LIVER S-9, PHENOBARBITAL AND BETA-NAPHTHOFLAVONE, Method: PREINCUBATION): inactive; negative
- mutagenic call (Test System: AMES SALMONELLA TYPHIMURIUM, Strain/Indicator: TA104, Metabolic Activation: NONE, Method: PREINCUBATION): inactive; negative
- mutagenic call (Test System: AMES SALMONELLA TYPHIMURIUM, Strain/Indicator: TA104, Metabolic Activation: RAT LIVER S-9, PHENOBARBITAL AND BETA-NAPHTHOFLAVONE, Method: PREINCUBATION): inactive; negative
- mutagenic call [8]: inactive; negative
- mutagenic call (Test System: AMES SALMONELLA TYPHIMURIUM, Strain/Indicator: TA1535, Metabolic Activation: RAT LIVER S-9, PHENOBARBITAL AND BETA-NAPHTHOFLAVONE, Method: PREINCUBATION): inactive; negative
- mutagenic call [11]: inactive; negative
- mutagenic call (Test System: AMES SALMONELLA TYPHIMURIUM, Strain/Indicator: TA1537, Metabolic Activation: RAT LIVER S-9, PHENOBARBITAL AND BETA-NAPHTHOFLAVONE, Method: PREINCUBATION): inactive; negative
- mutagenic call (Test System: E.COLI, Strain/Indicator: WP2UVRA/PKM101, Metabolic Activation: NONE, Method: PREINCUBATION): inactive; negative
- mutagenic call (Test System: E.COLI, Strain/Indicator: WP2UVRA/PKM101, Metabolic Activation: RAT LIVER S-9, PHENOBARBITAL AND BETA-NAPHTHOFLAVONE, Method: PREINCUBATION): inactive; negative
- mutagenic call (Test System: E.COLI, Strain/Indicator: WP2UVRA, Metabolic Activation: NONE, Method: PREINCUBATION): inactive; negative
- mutagenic call (Test System: E.COLI, Strain/Indicator: WP2UVRA, Metabolic Activation: RAT LIVER S-9, PHENOBARBITAL AND BETA-NAPHTHOFLAVONE, Method: PREINCUBATION): inactive; negative

SMILES: COc1c(O)cc2c3c1-c1ccccc1C[C@H]3N(C)CC2
- mutagenic call (Test System: AMES SALMONELLA TYPHIMURIUM, Strain/Indicator: TA98, Metabolic Activation: RAT, LIVER, S-9, PHENOBARBITAL AND BETA-NAPHTHOFLAVONE, Method: PREINCUBATION): active; positive
- mutagenic call (Test System: AMES SALMONELLA TYPHIMURIUM, Strain/Indicator: TA100, Metabolic Activation: RAT, LIVER, S-9, PHENOBARBITAL AND BETA-NAPHTHOFLAVONE, Method: PREINCUBATION): active; positive

SMILES: C1CC2(CCO1)CO2
- mutagenic call (Test System: AMES SALMONELLA TYPHIMURIUM, Strain/Indicator: TA100, Metabolic Activation: STANDARD PLATE): active; positive

SMILES: COc1ccc(C(=O)n2ncc(Cl)c(Cl)c2=O)cc1
- mutagenic call (Test System: AMES SALMONELLA TYPHIMURIUM, Strain/Indicator: TA98, Metabolic Activation: NONE, Method: STANDARD PLATE): inactive; negative
- mutagenic call (Test System: AMES SALMONELLA TYPHIMURIUM, Strain/Indicator: TA98, Metabolic Activation: RAT, LIVER, S-9, AROCLOR 1254, Method: STANDARD PLATE): inactive; negative
- mutagenic call (Test System: AMES SALMONELLA TYPHIMURIUM, Strain/Indicator: TA100, Metabolic Activation: NONE, Method: STANDARD PLATE): inactive; negative
- mutagenic call (Test System: AMES SALMONELLA TYPHIMURIUM, Strain/Indicator: TA100, Metabolic Activation: RAT, LIVER, S-9, AROCLOR 1254, Method: STANDARD PLATE): inactive; negative
- mutagenic call (Test System: AMES SALMONELLA TYPHIMURIUM, Strain/Indicator: TA1535, Metabolic Activation: NONE, Method: STANDARD PLATE): inactive; negative
- mutagenic call (Test System: AMES SALMONELLA TYPHIMURIUM, Strain/Indicator: TA1535, Metabolic Activation: RAT, LIVER, S-9, AROCLOR 1254, Method: STANDARD PLATE): inactive; negative
- mutagenic call (Test System: AMES SALMONELLA TYPHIMURIUM, Strain/Indicator: TA1537, Metabolic Activation: NONE, Method: STANDARD PLATE): inactive; negative
- mutagenic call (Test System: AMES SALMONELLA TYPHIMURIUM, Strain/Indicator: TA1537, Metabolic Activation: RAT, LIVER, S-9, AROCLOR 1254, Method: STANDARD PLATE): inactive; negative

SMILES: [Li+]
- mutagenic call [1]: inactive; negative
- mutagenic call [2]: inactive; negative
- mutagenic call [3]: inactive; negative
- mutagenic call [4]: inactive; negative
- mutagenic call [5]: inactive; negative
- mutagenic call [6]: inactive; negative
- mutagenic call [7]: inactive; negative
- mutagenic call [8]: inactive; negative
- mutagenic call [9]: inactive; negative
- mutagenic call [10]: inactive; negative
- mutagenic call [11]: inactive; negative
- mutagenic call [12]: inactive; negative
- mutagenic call (Test System: E. COLI, Strain/Indicator: WP2 UVRA, Metabolic Activation: NONE, Method: SPOT TEST): inactive; negative

SMILES: C=C[C@H]1CN2CC[C@H]1C[C@H]2[C@H](OC(=O)OCC)c1ccnc2ccc(OC)cc12
- mutagenic call [2]: inactive; negative
- mutagenic call (Test System: AMES SALMONELLA TYPHIMURIUM, Strain/Indicator: TA98, Metabolic Activation: RAT, LIVER, S-9, Method: PREINCUBATION): inactive; negative
- mutagenic call [5]: inactive; negative
- mutagenic call (Test System: AMES SALMONELLA TYPHIMURIUM, Strain/Indicator: TA100, Metabolic Activation: RAT, LIVER, S-9, Method: PREINCUBATION): inactive; negative
